Test systems include OVCAR-5; RXF 393; KM12; NCI-H522; SW-620; SK-OV-3; SK-MEL-2; HL-60; K562; MCF7; LOX IMVI; OVCAR-3; SK-MEL-5; ACHN; HCT-15; TK-10; UO-31; PC-3; OVCAR-4; HOP-92.
Assay in all cases: NCI-60 cell line screen, 48 h

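Interpolation was linear, between the two tested concentrations surrounding the appropriate level; five concentrations were tested over 48 hours in 96-well plates. GI50 = concentration required for 50% inhibition of growth.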 Activity calls are given as the source filed them. Rule as the data show it: active = GI50 up to about 1.1 µM and inactive = higher. A value given as a limit tells only on which side of the number the result lay.

For the compound `C[O+]=C1C=CC(=C2SC(c3ccccc3)(c3ccccc3)c3ccccc32)C=C1.[O-][Cl+3]([O-])([O-])[O-]`, the GI50 in the test on OVCAR-5 was 19.5 µM (inactive); with RXF 393, 11.8 µM (inactive); with KM12, 15.7 µM (inactive); with NCI-H522 it was 20.7 µM (inactive); with SW-620, 31.6 µM (inactive); in the test with SK-OV-3, 38 µM (inactive). The GI50 in the test with SK-MEL-2 is 15.6 µM (inactive); with HL-60, 17 µM (inactive); in the test with K562, 26.7 µM (inactive); with MCF7, 25.4 µM (inactive); in the test on LOX IMVI it was 18 µM (inactive); in the test on OVCAR-3, 16.1 µM (inactive). The GI50 is 16.6 µM (inactive) with SK-MEL-5; 24.8 µM (inactive) in the test on ACHN; 10.9 µM with HCT-15; 23.4 µM (inactive) in the test with TK-10; 10 µM (inactive) in the test on UO-31; 20.9 µM (inactive) in the test on PC-3. In addition, the results for the GI50 in the test with OVCAR-4 and with HOP-92 were 14.6 µM (inactive) and 16.6 µM (inactive), respectively.

For `Cc1cc(O)cc(O)c1/N=N/c1ccc([N+](=O)[O-])cc1`, the GI50 in the test with OVCAR-5 is 27.7 µM (inactive); with RXF 393 it was 10.6 µM (inactive); in the test on KM12, 22.6 µM (inactive); with NCI-H522 it was 3.48 µM (inactive); with SW-620 it was 5.96 µM (inactive); with SK-OV-3, > 100 µM (inactive). In addition, the GI50 with SK-MEL-2 was 15.4 µM (inactive); in the test on HL-60, 5.16 µM (inactive); with K562, 3.27 µM (inactive); in the test with MCF7, 16.5 µM (inactive); in the test on LOX IMVI, 23.7 µM (inactive); in the test on OVCAR-3, > 100 µM (inactive). In addition, the GI50 is 12.6 µM (inactive) with SK-MEL-5; 17.1 µM (inactive) in the test with ACHN; 6.87 µM in the test with HCT-15; 23.9 µM (inactive) in the test on TK-10; 25 µM (inactive) in the test on UO-31; 16 µM (inactive) in the test with PC-3. Moreover, the GI50 is 9.64 µM (inactive) in the test on OVCAR-4 and 2.39 µM (inactive) with HOP-92.

With `Nc1ccc(Cn2ccc3c4c(N)nc(N)nc4ccc32)cc1`, the GI50 was 0.0224 µM (active) with OVCAR-5; 0.118 µM (active) in the test with RXF 393; 0.0321 µM (active) in the test with KM12; 0.0847 µM (active) in the test on NCI-H522; < 0.01 µM (active) in the test on SW-620; 12.3 µM (inactive) with SK-OV-3. Further, the GI50 is 1.17 µM (inactive) in the test on SK-MEL-2; < 0.01 µM (active) in the test with HL-60; < 0.01 µM (active) in the test on K562; 0.0351 µM (active) in the test on MCF7; < 0.01 µM (active) with LOX IMVI; 0.431 µM (active) with OVCAR-3. For the same compound, the GI50 in the test on SK-MEL-5 was < 0.01 µM (active); in the test on ACHN, < 0.01 µM (active); with HCT-15, < 0.01 µM; with TK-10, 1.58 µM (inactive); in the test with UO-31 it was 0.406 µM (active); in the test on PC-3 it was 0.0127 µM (active). For the same compound, the GI50 in the test on OVCAR-4 is 1.54 µM (inactive); in the test with HOP-92, 0.71 µM (active).

As to `Cc1cc(N(CCC#N)CCC#N)ccc1/C=C1\SC(=S)NC1=O`, the GI50 with OVCAR-5 was 34.9 µM (inactive); in the test on RXF 393, 19.8 µM (inactive); with KM12 it was 62.2 µM (inactive); in the test with NCI-H522, 19.4 µM (inactive); with SW-620, > 100 µM (inactive); with SK-OV-3 it was 21.5 µM (inactive). The GI50 with SK-MEL-2 is > 100 µM (inactive); in the test on HL-60, 32.5 µM (inactive); in the test on K562, 40 µM (inactive); in the test on MCF7, 54.2 µM (inactive); in the test on LOX IMVI, > 100 µM (inactive); in the test with OVCAR-3, 51.3 µM (inactive). Besides, the GI50 in the test on SK-MEL-5 is > 100 µM (inactive); with ACHN it was > 100 µM (inactive); in the test on HCT-15, > 100 µM; with TK-10 it was > 100 µM (inactive); in the test on UO-31, 99.8 µM (inactive); in the test with PC-3 it was 36.8 µM (inactive). The values for the GI50 in the test on OVCAR-4 and in the test with HOP-92 were > 100 µM (inactive) and 36.4 µM (inactive), respectively.

Consider `Cc1c(N)nc(C2CC(=O)N2CC(N)C(N)=O)nc1C(=O)NC(C(=O)NC(C)C(O)C(C)C(=O)NC(C(=O)NCCc1nc(-c2nc(C(=O)NCCNCC(C)O)cs2)cs1)C(C)O)C(OC1OC(CO)C(O)C(O)C1OC1OC(CO)C(O)C(OC(N)=O)C1O)c1c[nH]cn1` (stereo not given), for which the GI50 was 2.67 µM (inactive) with OVCAR-5; 0.0344 µM (active) in the test on RXF 393; 19.9 µM (inactive) in the test on KM12; 0.462 µM (active) with NCI-H522; 13.9 µM (inactive) in the test on SW-620; 8.41 µM (inactive) in the test with SK-OV-3. For the same compound, the GI50 in the test on SK-MEL-2 was 38.1 µM (inactive); with HL-60 it was 5.75 µM (inactive); in the test with K562, 20.1 µM (inactive); with MCF7 it was 13.8 µM (inactive); with LOX IMVI, 0.184 µM (active); in the test on OVCAR-3 it was 6.56 µM (inactive). Besides, the GI50 in the test with SK-MEL-5 was 0.809 µM (active); with ACHN it was < 0.0249 µM (active); in the test on HCT-15 it was 2.73 µM; in the test on TK-10, 37.6 µM (inactive); in the test on UO-31, 0.813 µM (active); in the test with PC-3, > 50 µM (inactive). The GI50 with OVCAR-4 was 7.57 µM (inactive); with HOP-92, 0.295 µM (active).

For the compound `COc1ccc(OC)c(C2CCc3nc4nc(N)nc(N)c4cc3C2)c1` (stereo not given), the GI50 in the test with OVCAR-5 is 9.35 µM (inactive); in the test on RXF 393, 2.69 µM (inactive); with KM12, 2.29 µM (inactive); in the test with NCI-H522, 2.19 µM (inactive); in the test with SW-620, 2.86 µM (inactive); with SK-OV-3, 4.1 µM (inactive). Further, the GI50 in the test with SK-MEL-2 was 1.97 µM (inactive); in the test on HL-60, 2.64 µM (inactive); with K562, 2.31 µM (inactive); in the test with MCF7 it was 1.89 µM (inactive); in the test with LOX IMVI, 3.12 µM (inactive); with OVCAR-3, 1.82 µM (inactive). The GI50 with SK-MEL-5 is 5.05 µM (inactive); in the test on ACHN, 12 µM (inactive); in the test on HCT-15 it was 14.1 µM; in the test with TK-10, 9.77 µM (inactive); with UO-31, 3.25 µM (inactive); in the test on PC-3 it was 3.56 µM (inactive). The GI50 was 2.07 µM (inactive) in the test with OVCAR-4 and 2.19 µM (inactive) in the test with HOP-92.

Take `CCOCC(=O)N[C@H]1CCc2cc(OC(=O)COCC)c(OC)c(OC)c2-c2ccc(SC)c(=O)cc21`: the GI50 with OVCAR-5 is 0.604 µM (active); in the test with RXF 393 it was 0.021 µM (active); in the test with KM12, 0.00708 µM (active); in the test on NCI-H522 it was 0.0151 µM (active); in the test with SW-620, 0.0171 µM (active); in the test on SK-OV-3, 0.00867 µM (active). Further, the GI50 in the test on SK-MEL-2 is 0.019 µM (active); in the test with HL-60 it was 0.00473 µM (active); in the test with K562 it was 0.0126 µM (active); in the test with MCF7, 0.00686 µM (active); in the test with LOX IMVI, 0.0303 µM (active); in the test on OVCAR-3, 0.01 µM (active). Besides, the GI50 in the test with SK-MEL-5 is 0.00478 µM (active); in the test on ACHN, 0.0655 µM (active); in the test on HCT-15, 0.0551 µM; with TK-10, 0.459 µM (active); in the test on UO-31, 0.914 µM (active); in the test on PC-3 it was 0.0224 µM (active). In addition, the GI50 in the test on OVCAR-4 was 10.5 µM (inactive); in the test on HOP-92, 0.0248 µM (active).

As to `CO[C@H]1C=CO[C@@]2(C)Oc3c(C)c(O)c4c(O)c(c(CN5CCN(C)CC5)c(O)c4c3C2=O)NC(=O)/C(C)=C\C=C[C@H](C)[C@H](O)C(C)[C@@H](O)C(C)[C@H](OC(C)=O)[C@@H]1C` (stereo not given in full), the GI50 in the test with OVCAR-5 was > 100 µM (inactive); in the test with RXF 393, 48.3 µM (inactive); in the test with KM12, 45.6 µM (inactive); in the test with NCI-H522 it was 18.3 µM (inactive); with SW-620, 13.1 µM (inactive); with SK-OV-3, > 100 µM (inactive). The GI50 in the test on SK-MEL-2 was 41.8 µM (inactive); in the test on HL-60, 23.1 µM (inactive); with K562, 20.9 µM (inactive); in the test on MCF7 it was 11.1 µM (inactive); in the test with LOX IMVI, 14.3 µM (inactive); in the test on OVCAR-3, 2.88 µM (inactive). Besides, the GI50 was 24.3 µM (inactive) in the test on SK-MEL-5; > 75.3 µM (inactive) in the test with ACHN; 30.8 µM in the test with HCT-15; 49.4 µM (inactive) in the test with TK-10; 33.7 µM (inactive) with UO-31; 17 µM (inactive) in the test on PC-3. Moreover, the GI50 in the test on OVCAR-4 was 27.5 µM (inactive); in the test with HOP-92 it was 71.4 µM (inactive).

Turning to `O=C1CS(=O)(=O)C(c2cccc(Oc3ccccc3)c2)N1c1ccccc1` (stereo not given), the GI50 with OVCAR-5 was 31.6 µM (inactive); in the test on RXF 393, 19.3 µM (inactive); with KM12, 25.8 µM (inactive); with NCI-H522 it was 18.9 µM (inactive); in the test with SW-620, 31.5 µM (inactive); with SK-OV-3, 35.2 µM (inactive). For the same compound, the GI50 in the test with SK-MEL-2 is 16.1 µM (inactive); in the test on HL-60 it was 21.1 µM (inactive); in the test on K562, 14.4 µM (inactive); in the test on MCF7, 14.3 µM (inactive); in the test with LOX IMVI, 16.5 µM (inactive); in the test on OVCAR-3 it was 20.7 µM (inactive). For the same compound, the GI50 was 14.9 µM (inactive) in the test with SK-MEL-5; 23.7 µM (inactive) with ACHN; 22 µM with HCT-15; 26.6 µM (inactive) with TK-10; 29.9 µM (inactive) with UO-31; 19.1 µM (inactive) in the test with PC-3. Moreover, the GI50 is 26.1 µM (inactive) in the test on OVCAR-4 and 14.6 µM (inactive) in the test with HOP-92.

`COc1cc2c3c(cc(Cl)nc3c1OC)C(=O)C(=O)N2`: the GI50 is 18 µM (inactive) with OVCAR-5; 13.6 µM (inactive) in the test with RXF 393; 16.4 µM (inactive) in the test on KM12; 4.22 µM (inactive) with NCI-H522; 5.85 µM (inactive) with SW-620; 18 µM (inactive) in the test on SK-OV-3. Moreover, the GI50 in the test on SK-MEL-2 was 14.1 µM (inactive); in the test with HL-60, 1.36 µM (inactive); with K562, 2.91 µM (inactive); in the test on MCF7, 2.05 µM (inactive); in the test on LOX IMVI, 9.44 µM (inactive); in the test with OVCAR-3 it was 16.6 µM (inactive). Further, the GI50 with SK-MEL-5 is 16.4 µM (inactive); in the test with ACHN it was 14.7 µM (inactive); in the test on HCT-15, 19.2 µM; with TK-10, 18.7 µM (inactive); in the test on UO-31 it was 13.6 µM (inactive); with PC-3, 14.5 µM (inactive). Moreover, the GI50 is 1.6 µM (inactive) in the test with OVCAR-4 and 1.81 µM (inactive) in the test on HOP-92.
